Source: patent US9598363B2, “Plant growth regulating compounds” (SYNGENTA PARTICIPATIONS AG, priority 2013, dated 2017)

Assays:
[1] = tested on: Orobanche cumana Wallr. seeds; experiment: Orobanche cumana seed germination test on glass fiber filter paper in petri dishes; assay type: in vivo; conditions: preconditioned Orobanche cumana seeds, N = 5 × 100 seeds
Procedure: The effect of compounds of Formula (I) on germination of Orobanche cumana Wallr. seeds was evaluated on glass fiber filter paper (GFFP) in petri dishes. Seeds were preconditioned at moisture and suitable temperature to become responsive to the specific chemical germination stimulants.
Test compounds were dissolved in DMSO (10,000 mg/L) and stored at room temperature in a desiccators with desiccants. The stock solutions were dissolved with deionised water to the appropriate final test concentration.
Seeds of O. cumana race ‘F’ were collected from sunflower fields in Manzanilla (Seville, Spain) in 2008 (seed lot IN153) and stored at room temperature. To separate seeds from heavy organic debris, a modified sucrose floatation technique as described by Hartman & Tanimonure (Plant Disease (1991), 75, p. 494) was applied. Seeds were filled into a separation funnel and stirred in water. When seeds floated to the surface, the water fraction containing heavy debris was discarded. Seeds were re-suspended in 2.5 M sucrose solution (specific gravity of 1.20) and heavy debris was allowed to settle down for 60 min. After removing debris, seeds were disinfected in 1% sodium hypochlorite solution and 0.025% (v/v) Tween 20 for 2 min. The seeds were decanted onto two layers of cheesecloth, rinsed with sterile deionised water and re-suspended in sterile deionised water. 2 mL of the seed suspension containing approximately 150-400 seeds was spread evenly on two layers of sterile glass fiber filter paper disc ([…]) in Petri dishes (Ø9 cm). After wetting the discs with 3 mL sterile deionised water, petri dishes were sealed with parafilm. Seeds were incubated for 10 days at 20° C. in the dark for seed conditioning. The upper disc with conditioned seeds was briefly dried, transferred to a petri dish lined with a dry GFFP disc, and wetted with 6 mL of the appropriate test solution. The compounds of Formula (I) were tested at concentrations of 0.01, 0.1, and 1 mg/L. The strigolactone analogue GR24 (commercially available as a mixture of isomers) was included as positive control and 0.01% DMSO as negative control. All treatments were tested in five replicates. Seeds were re-incubated at 20° C. in the dark and examined for germination 10 days later. The radicles of germinated seeds were stained for 5 min with blue ink (PELIKAN #4001, Germany) in 5% acetic acid according to Long et al. (Seed Science Research (2008), 18, p. 125). After staining, seeds were photographed using a camera stand mounted with a digital SLR camera (Canon EOS 5D). Germination of 100 seeds per replicate was evaluated on digital images. Seeds were considered germinated when the radicle protruded from the seed coat.

[2] = concentration 0.01 mg/L, control (0.01% DMSO): 1.4% germination
[3] = concentration 0.1 mg/L, control (0.01% DMSO): 1.4% germination
[4] = concentration 1 mg/L, control (0.01% DMSO): 1.4% germination
[5] = 1 mg/L, control (0.01% DMSO): 0.75% germination

melting point	SMILES	Germination (%) [1, 2]	Germination (%) [1, 3]	Germination (%) [1, 4]	Germination (%) [1, 5]
–	CC1=CC(OC(=O)NCc2ccccc2)OC1=O (stereo not shown) [reference compound]	8.8%	41.8%	82.6%	–
106 °C	CC1=CC(OC(=O)NCc2ccccc2)N(C)C1=O (stereo not shown) [Ia-2, (1,4-dimethyl-5-oxo-2H-pyrrol-2-yl) N-benzylcarbamate]	–	–	–	76.6%
–	CC1=CC(OC(=O)NCc2ccccc2)N(C)C1=O (stereo not shown) [drawing 24]	60.8%	67.4%	76.6%	–
–	CC1=CC(O/C=C2/C(=O)OC3c4ccccc4CC23)OC1=O (stereo not shown) [reference compound]	65%	78.4%	86.6%	–
–	COCN1C(=O)C(C)=CC1OC(=O)NCc1ccccc1 (stereo not shown) [Ia-1, [1-(methoxymethyl)-4-methyl-5-oxo-2H-pyrrol-2-yl]N-benzylcarbamate]	–	–	–	86.8%
–	CON1C(=O)C(C)=CC1OC(=O)NCc1ccccc1 (stereo not shown) [Ia-3, (1-methoxy-4-methyl-5-oxo-2H-pyrrol-2-yl) N-benzylcarbamate]	–	–	–	44.8%
–	CC1=CC(OC(=O)NCc2ccccc2)N(CC(F)(F)F)C1=O (stereo not shown) [Ia-5, [4-methyl-5-oxo-1-(2,2,2-trifluoroethyl)-2H-pyrrol-2-yl]N-benzylcarbamate]	–	–	–	16.2%
–	CC1=CC(OC(=O)NCc2ccccc2)N(C2CC2)C1=O (stereo not shown) [Ia-6, (1-cyclopropyl-4-methyl-5-oxo-2H-pyrrol-2-yl) N-benzylcarbamate]	–	–	–	76.4%
92 to 94 °C	C#CCN1C(=O)C(C)=CC1Oc1ccc(Br)cc1 (stereo not shown)	–	–	–	–
